Our source for the solubility and IC50 values is patent US9879002B2, “PDE10 inhibitors and related compositions and methods” (Omeros Corporation, priority 2015, dated 2018).

The term solubility denotes the dissolved amount per volume that the medium holds.

Data set [1] is described as follows: Solubility assay in simulated Intestinal Fluid pH 7.5. The class given is physicochemical. The conditions noted are these: fassgf or other biorelevant, kinetic from dmso stock, shaken 24 hours at room temperature, from 10 mM DMSO stock, detection limit approximately 1 μM, read-out: Solubility test results: Conc. (μM), pH 7.5 (IF). As for the experimental part:
Solubility of each compound was measured by adding 4 μl of a 10 mM DMSO compound stock to 396 μl buffer (either a simulated Gastric Fluid pH 1.2 (0.2% NaCl, 0.7% HCl) or simulated Intestinal Fluid pH 7.5 (0.68% KHPO4, pH with NaOH)). This was shaken for 24 hours at room temperature, spun at 14,000 rpm for 5 minutes, and the supernatant was transferred into a clean eppendorf tube. The absorption spectra of the compound-containing supernatant were measured from 220 to 400 nm and compared with the absorption spectra of a 10 μM acetonitrile stock of the same compound. The concentration of the compound in the supernatant was calculated by comparing the absorbance maximum of the compound in the simulated buffer to that in acetonitrile.

For data set [2], the target named is PDE10 (Homo sapiens, UniProt Q9Y233). The data set can be described thus: PDE10 biochemical assay (scintillation proximity assay, [3H]-cGMP substrate). The method, then: The phosphodiesterase (PDE) activity was measured using a scintillation proximity assay (SPA) with [^3H]-cGMP as the substrate. Purified PDE10 was stored in 40 mM Tris-Cl (pH 8.0)/100 mM NaCl/0.04% Tween-20/20% Glycerol/3 mM DTT and then used to prepare a 10×PDE solution in 50 mM Tris-Cl (pH 7.5)/8.3 mM MgCl2/1.7 mM EGTA. Assays contained (final concentrations): 50 mM Tris-Cl (pH 7.5)/8.3 mM MgCl2/1.7 mM EGTA/0.5 mg/ml BSA/1% DMSO and 2 ng PDE10 in a final volume of 0.1 mL. Inhibition was evaluated at 8 concentrations in duplicate. Reactions were initiated by addition of enzyme and were terminated after 20 minutes at 30° C. by the addition of 50 μl of SPA beads containing Zn^++. The mixture was shaken, allowed to settle for at least 1 hour, and counted in a Wallac plate counter. Results (net cpm) were fitted to a four parameter logistic model using Excel Solver®.

Data set [3] addresses T1, PDE10 (Mus musculus, UniProt Q8CA95).
T1 sequence (Q8CA95 1-790): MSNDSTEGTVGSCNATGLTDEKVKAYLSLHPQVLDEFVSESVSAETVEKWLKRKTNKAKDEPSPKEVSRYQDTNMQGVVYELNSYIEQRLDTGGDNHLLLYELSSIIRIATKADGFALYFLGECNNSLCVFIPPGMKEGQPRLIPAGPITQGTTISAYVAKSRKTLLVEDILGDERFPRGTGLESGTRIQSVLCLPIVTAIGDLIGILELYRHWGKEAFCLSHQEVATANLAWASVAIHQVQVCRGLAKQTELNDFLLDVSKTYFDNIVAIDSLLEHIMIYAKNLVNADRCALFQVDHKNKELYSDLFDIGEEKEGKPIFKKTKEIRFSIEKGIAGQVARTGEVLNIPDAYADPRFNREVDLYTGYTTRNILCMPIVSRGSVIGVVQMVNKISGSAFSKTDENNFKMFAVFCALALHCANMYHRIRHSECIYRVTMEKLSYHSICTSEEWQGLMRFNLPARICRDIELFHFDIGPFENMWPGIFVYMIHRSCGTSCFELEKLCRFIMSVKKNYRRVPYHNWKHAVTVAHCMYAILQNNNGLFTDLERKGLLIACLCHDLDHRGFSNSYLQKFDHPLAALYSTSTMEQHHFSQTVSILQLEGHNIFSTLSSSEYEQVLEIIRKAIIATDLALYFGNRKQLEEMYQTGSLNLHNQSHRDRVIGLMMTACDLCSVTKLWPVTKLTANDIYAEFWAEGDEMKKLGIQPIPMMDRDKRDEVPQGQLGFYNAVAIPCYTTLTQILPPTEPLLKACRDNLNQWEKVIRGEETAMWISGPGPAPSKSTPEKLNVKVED
The conditions noted are these: cited from Soderling and Beavo 2000; read-out: IC50 (50% inhibitory concentration); cited from earlier work.

Where [4] appears, read: SPA, [3H]-cGMP, 20 minutes at 30° C., 8 concentrations in duplicate, read-out: Average IC50.
[5] abbreviates: text statement on the PDE10 biochemical assay, read-out: IC50.

Molecules are shown by their SMILES. In brackets after ≈: the same amount, converted by molar mass. Where two headings read alike, the source gives them in different places.

Chain of PDE10 (Homo sapiens, UniProt Q9Y233) (Q9Y233 whole entry): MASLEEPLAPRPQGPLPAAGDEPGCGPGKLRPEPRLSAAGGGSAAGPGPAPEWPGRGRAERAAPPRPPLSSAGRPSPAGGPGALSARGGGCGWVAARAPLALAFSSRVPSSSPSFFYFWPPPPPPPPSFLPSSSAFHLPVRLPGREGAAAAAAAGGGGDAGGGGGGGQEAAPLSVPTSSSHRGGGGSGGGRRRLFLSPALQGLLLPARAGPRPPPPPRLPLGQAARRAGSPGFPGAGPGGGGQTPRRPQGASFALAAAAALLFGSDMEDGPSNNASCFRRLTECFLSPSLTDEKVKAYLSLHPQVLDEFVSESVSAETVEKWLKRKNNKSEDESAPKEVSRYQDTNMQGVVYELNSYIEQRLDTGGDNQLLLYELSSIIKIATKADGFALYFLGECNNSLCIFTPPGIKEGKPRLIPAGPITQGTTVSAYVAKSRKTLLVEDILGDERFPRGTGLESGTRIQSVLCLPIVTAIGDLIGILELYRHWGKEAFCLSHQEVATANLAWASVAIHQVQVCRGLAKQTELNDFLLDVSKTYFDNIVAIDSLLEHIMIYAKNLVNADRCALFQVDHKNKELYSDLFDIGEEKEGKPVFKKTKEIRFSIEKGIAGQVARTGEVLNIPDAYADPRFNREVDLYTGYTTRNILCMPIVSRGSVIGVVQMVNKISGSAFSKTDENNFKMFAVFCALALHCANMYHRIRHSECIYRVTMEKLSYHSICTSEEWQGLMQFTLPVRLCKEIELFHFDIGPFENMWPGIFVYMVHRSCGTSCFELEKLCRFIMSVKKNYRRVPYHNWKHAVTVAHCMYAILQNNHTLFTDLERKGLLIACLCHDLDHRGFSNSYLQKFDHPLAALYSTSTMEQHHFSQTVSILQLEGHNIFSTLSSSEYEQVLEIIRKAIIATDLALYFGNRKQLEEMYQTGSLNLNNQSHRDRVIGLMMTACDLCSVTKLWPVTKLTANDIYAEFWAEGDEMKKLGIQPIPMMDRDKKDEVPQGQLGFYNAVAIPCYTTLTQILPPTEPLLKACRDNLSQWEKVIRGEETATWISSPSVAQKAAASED

`CCOC(C(=O)c1ccc(-c2cc(O)c(Cl)c(OC)c2)o1)c1ccc(-c2nnc(C)s2)cc1` (centres unmarked) [Compound 1, 1-[5-(4-chloro-3-hydroxy-5-methoxyphenyl)furan-2-yl]-2-ethoxy-2-[4-(5-methyl-1,3,4-thiadiazol-yl)phenyl]ethanone]: the solubility at 24 h in data set [1] was 2.5 µM (≈ 1.21 µg/mL). For the same compound, the IC50 on PDE10 [2] (setting [4]) is 37.7 nM; at PDE10 [2] (setting [5]), at most 1000 nM.

Take `CCOC(C(=O)c1ccc(-c2cc(OC)c(Cl)c(OC)c2)o1)c1ccc(-c2nnc(CO)s2)cc1` (centres unmarked) [Compound 2, 1-(5-(4-chloro-3,5-dimethoxyphenyl)furan-2-yl)-2-ethoxy-2-(4-(5-(hydroxymethyl)-1,3,4-thiadiazol-2-yl)phenyl)ethan-1-one]: the solubility at 24 h in data set [1] is 5.8 µM (≈ 2.99 µg/mL). The IC50 was 1.3 nM at PDE10 [2] (setting [4]) and at most 1000 nM at PDE10 [2] (setting [5]).

For `CCOC(C(=O)c1ccc(-c2cc(OC)c(Cl)c(O[C@H]3O[C@H](C(=O)O)[C@@H](O)[C@H](O)[C@H]3O)c2)o1)c1ccc(-c2nnc(C)s2)cc1` (stereo partly drawn) [Compound 3, (2S,3S,4S,5R,6R)-6-(2-chloro-5-(5-(2-ethoxy-2-(5-methyl-1,3,4-thiadiazol-2-yl)phenyl)acetyl)furan-2-yl-methoxyphenoxy)-3,4,5-trihydroxytetrahydro-2H-pyran-2-carboxylic acid], the solubility at 24 h in data set [1] was 78.3 µM (≈ 51.8 µg/mL). Moreover, the IC50 on PDE10 [2] (setting [4]) is 652 nM; at PDE10 [2] (setting [5]), at most 1000 nM.

Consider `CCOC(c1ccc(-c2nnc(C)s2)cc1)C(O)c1ccc(-c2cc(OC)c(Cl)c(OC)c2)o1` (centres unmarked) [Compound 4, 1-(5-(4-chloro-3,5-dimethoxyphenyl)furan-2-yl)-2-ethoxy-2-(4-(5-methyl-1,3,4-thiadiazol-2-yl)phenyl)ethan-1-ol], for which, in data set [1], the solubility at 24 h is 2.5 µM (≈ 1.25 µg/mL). Also, the IC50 on PDE10 [2] (setting [4]) is 127 nM; on PDE10 [2] (setting [5]), at most 1000 nM.

As to `CCOC(C(=O)c1ccc(-c2cc(OC)c(Cl)c(OC)c2)o1)c1ccc(-c2nnc(C)s2)cc1` (centres unmarked) [Compound A, 1-(5-(4-chloro-3,5-dimethoxyphenyl)furan-2-yl)-2-ethoxy-2-(4-(5-methyl-l,3,4-thiadiazol-2-yl)phenyl)ethan-1-one, reference compound], the solubility at 24 h in data set [1] was below 1 µM.

Turning to `CC(C)Cn1c(=O)n(C)c(=O)c2[nH]cnc21` [IBMX], the IC50 on PDE10 [3] is 2600 nM.
